# Test results: ChEMBL document CHEMBL5247626, “In vitro and in vivo biological evaluation of newly synthesized multi-target 20(R)-panaxadiol derivatives for treating Alzheimer's disease” (Eur J Med Chem, 2022)
# pEC50: −log10 of the molar value. Active and inactive are the calls of the source. No cut-off for these calls is given here.
# Assays:
# [1] = system: PC-12; assay: Neuroprotective activity against amyloid beta (25 to 35)-induced rat PC12 cells assessed as decrease in NF-kappaB phosphorylation level at 7.5 to 30 uM preincubated for 30 mins followed by amyloid beta (25 to 35) addition and measured after 24 hrs by western blot assay; type: functional, cell-based; conditions: dose 7.5-30 µM, time 24.5 hrs
# [2] = system: Mus musculus; assay: Antialzheimer activity against amyloid beta (25 to 35)-induced cognitive deficit ICR mouse model assessed as increase in preferential index at 50 mg/kg,po observed after 24 hrs of administration by novel object recognition test; type: functional, organism-based
# [3] = system: PC-12; assay: Neuroprotective activity against amyloid beta (25 to 35)-induced rat PC12 cells assessed as decrease in TNF-alpha expression level at 7.5 to 30 uM preincubated for 30 mins followed by amyloid beta (25 to 35) addition and measured after 24 hrs by western blot assay; type: functional, cell-based; conditions: dose 7.5-30 µM, time 24.5 hrs
# [4] = Half life in Sprague-Dawley rat at 10 mg/kg,iv measured at 0.083 to 24 hrs post administration by LC-MS/MS analysis; type: ADME, organism-based; conditions: in vivo, time 0.083-24 hrs
# [5] = Volume of distribution of steady state in Sprague-Dawley rat at 10 mg/kg,iv measured at 0.083 to 24 hrs post administration by LC-MS/MS analysis; type: ADME, organism-based; conditions: in vivo, time 0.083-24 hrs, read-out: Vdss
# [6] = system: PC-12; assay: Neuroprotective activity against rat PC12 cells assessed as reduction in amyloid beta (25 to 35)-induced cytotoxicity incubated for 4 hrs followed by amyloid beta (25 to 35) treatment for 24 hrs by MTT assay; type: functional, cell-based
# [7] = system: PC-12; assay: Neuroprotective activity against rat PC12 cells assessed as reduction in amyloid beta (25 to 35)-induced cytotoxicity at 15 uM incubated for 4 hrs followed by amyloid beta (25 to 35) treatment for 24 hrs by MTT assay relative to control; type: functional; parameters: scale not given: the % may be the effect or the level left; conditions: time 28 hrs
# [8] = system: HUVEC; assay: Cytotoxicity against human HUVEC cells assessed as decrease in cell viability at 120 uM incubated for 24 hrs by MTT assay; type: toxicity, cell-based
# [9] = system: Mus musculus; assay: Antialzheimer activity against amyloid beta (25 to 35)-induced brain injury ICR mouse model assessed as increase in NeuN expression level in cerebral cortex at 50 mg/kg,po administrated for 21 days by immunohistochemistry analysis; type: functional, organism-based; conditions: time 21.0 day
# [10] = system: PC-12; assay: Neuroprotective activity against amyloid beta (25 to 35)-induced rat PC12 cells assessed as decrease in total tau protein expression level at 7.5 to 30 uM preincubated for 30 mins followed by amyloid beta (25 to 35) addition and measured after 24 hrs by western blot assay; type: functional, cell-based; conditions: dose 7.5-30 µM, time 24.5 hrs
# [11] = system: PC-12; assay: Neuroprotective activity against rat PC12 cells assessed as reduction in amyloid beta (25 to 35)-induced cytotoxicity at 2.67 to 91.27 uM incubated for 4 hrs followed by amyloid beta (25 to 35) treatment for 24 hrs by MTT assay relative to control; type: functional; parameters: scale not given: the % may be the effect or the level left; conditions: dose 2.67-91.27 µM, time 28 hrs
# [12] = AUC (0-infinity) in Sprague-Dawley rat at 60 mg/kg,po measured at 0.25 to 24 hrs post administration by LC-MS/MS analysis; type: ADME, organism-based; parameters: dose 60 mg/kg, time 0.25-24 hrs, route po; conditions: in vivo
# [13] = system: Mus musculus; assay: Antialzheimer activity against amyloid beta (25 to 35)-induced cognitive deficit ICR mouse model assessed as effect on total number of arm enteries at 12.5 to 50 mg/kg,po observed after 11 days of administration by Y maze test; type: functional, organism-based; conditions: dose 12.5-50 mg/kg, time 11.0 day
# [14] = system: Mus musculus; assay: Antialzheimer activity against amyloid beta (25 to 35)-induced cognitive deficit ICR mouse model assessed as increase in preferential index at 25 mg/kg,po observed after 24 hrs of administration by novel object recognition test; type: functional, organism-based
# [15] = system: Mus musculus; assay: Antialzheimer activity against amyloid beta (25 to 35)-induced brain injury ICR mouse model assessed as attenuation of pathological change in cerebral cortex at 12.5 to 50 mg/kg,po administrated for 21 days by hematoxylin and eosin staining based microscopic analysis; type: functional, organism-based; conditions: dose 12.5-50 mg/kg, time 21.0 day
# [16] = Cytotoxicity against human HUVEC cells assessed as cell viability at 120 uM incubated for 24 hrs by MTT assay; type: toxicity, cell-based; conditions: read-out: Activity
# [17] = system: PC-12; assay: Neuroprotective activity against amyloid beta (25 to 35)-induced rat PC12 cells assessed as reduction in amyloid beta (25 to 35)-induced apoptosis rate at 7.5 uM incubated for 15 mins by Annexin V-FITC/PI staining based flow cytometric analysis (reference value: 2.9%); type: functional; parameters: scale not given: the % may be the effect or the level left; conditions: 0.25 h
# [18] = Toxicity in ICR mouse assessed as pathological changes in kidney at 12.5 to 50 mg/kg,po administrated for 20 days by hematoxylin and eosin staining based microscopic analysis; type: organism-based; conditions: in vivo, 480 h, dose 12.5-50 mg/kg, time 20 day
# [19] = Tmax in Sprague-Dawley rat at 60 mg/kg,po measured at 0.25 to 24 hrs post administration by LC-MS/MS analysis; type: ADME, organism-based; conditions: in vivo, time 0.25-24 hrs
# [20] = system: PC-12; assay: Neuroprotective activity against amyloid beta (25 to 35)-induced rat PC12 cells assessed as decrease in intracellular ROS level at 7.5 uM incubated for 24 hrs by DCFH-DA staining based flow cytometry assay; type: functional, cell-based
# [21] = Oral bioavailability in Sprague-Dawley rat at 60 mg/kg measured after 0.25 to 24 hrs post administration by LC-MS/MS analysis; type: ADME, organism-based; conditions: in vivo, time 0.25-24 hrs
# [22] = Toxicity in ICR mouse assessed as pathological changes in liver at 12.5 to 50 mg/kg,po administrated for 20 days by hematoxylin and eosin staining based microscopic analysis; type: organism-based; conditions: in vivo, 480 h, dose 12.5-50 mg/kg, time 20 day
# [23] = system: N2a; assay: Cytotoxicity against mouse Neuro2a cells assessed as effect on survival at < 60 uM incubated for 24 hrs by MTT assay; type: toxicity, cell-based
# [24] = Permeability of the compound incubated for 4 hrs by PAMPA-BBB assay based HPLC analysis
# [25] = system: PC-12; assay: Neuroprotective activity against amyloid beta (25 to 35)-induced rat PC12 cells assessed as decrease in beta-secretase protein expression level at 3.75 to 30 uM incubated for 30 mins followed by amyloid beta (25 to 35) addition and measured after 24 hrs by ELISA; type: functional, cell-based; conditions: dose 3.75-30 µM, time 24.5 hrs
# [26] = Toxicity in ICR mouse assessed as pathological changes in heart at 12.5 to 50 mg/kg,po administrated for 20 days by hematoxylin and eosin staining based microscopic analysis; type: organism-based; conditions: in vivo, 480 h, dose 12.5-50 mg/kg, time 20 day
# [27] = system: PC-12; assay: Neuroprotective activity against amyloid beta (25 to 35)-induced rat PC12 cells assessed as decrease in amyloid beta level at 3.75 to 30 uM incubated for 30 mins followed by amyloid beta (25 to 35) addition and measured after 24 hrs by ELISA; type: functional, cell-based; conditions: dose 3.75-30 µM, time 24.5 hrs
# [28] = system: PC-12; assay: Neuroprotective activity against amyloid beta (25 to 35)-induced rat PC12 cells assessed as decrease in JNK expression level at 7.5 to 30 uM preincubated for 30 mins followed by amyloid beta (25 to 35) addition and measured after 24 hrs by western blot assay; type: functional, cell-based; conditions: dose 7.5-30 µM, time 24.5 hrs
# [29] = system: PC-12; assay: Cytotoxicity against rat PC12 cells assessed as decrease in cell viability at 120 uM incubated for 24 hrs by MTT assay; type: toxicity, cell-based; conditions: pc-12, 24 h
# [30] = system: PC-12; assay: Cytotoxicity against rat PC12 cells assessed as effect on survival at < 60 uM incubated for 24 hrs by MTT assay; type: toxicity, cell-based; conditions: pc-12, 24 h
# [31] = Cmax in Sprague-Dawley rat at 60 mg/kg,po measured at 0.25 to 24 hrs post administration by LC-MS/MS analysis; type: ADME, organism-based; parameters: dose 60 mg/kg, time upper 24 hrs, time lower 0.25 hrs, route po; conditions: in vivo
smiles,measurement,setting,value
CC1(C)CCC[C@](C)([C@H]2CC[C@]3(C)[C@@H]2[C@H](O)C[C@@H]2[C@@]4(C)CC[C@H](OC(=O)NCc5ccccc5)C(C)(C)[C@@H]4CC[C@]23C)O1,Activity,[1],Active
same,Activity,[2],Active
same,Activity,[3],Active
same,half-life,[4],2.6 h
same,Vd,[5],0.133 L/kg
same,pEC50,[6],4.88
same,Activity,[7],73.01%
same,Activity,[8],Toxic
same,Activity,[9],Active
same,Activity,[10],Active
same,Activity,[11],14.89%
same,AUC(0-inf),[12],326 ng·h/mL
same,Activity,[13],inactive
same,Activity,[14],Active
same,Activity,[15],Active
same,"viability at 24 h, 120 µM",[16],> 50%
same,Activity,[17],14.1%
same,Activity,[18],Non-Toxic
same,Tmax,[19],1.33 h
same,Activity,[20],Active
same,bioavailability,[21],0.2%
same,Activity,[22],Non-Toxic
same,Activity,[23],Non-Toxic
same,Papp at 4 h,[24],26.1 ×10⁻⁶ cm/s
same,Activity,[25],Active
same,Activity,[26],Non-Toxic
same,Activity,[27],Active
same,Activity,[28],Active
same,Activity,[29],Toxic
same,Activity,[30],Non-Toxic
same,Cmax,[31],220 ng/mL
